Here are results for 6 compounds from patent US20060153897A1, “Zinc-containing foods” (priority 2001, published 2006).

The subject of one data set is female and male rats. Kind of data set: Acute toxicity test. Format: in vivo. Particulars: female and male rats, 2, 8 and 15 days after administration of 2,000 mg/kg. On the procedure:
(§1) Outside the application of GLP, acute toxicity test was carried out for zinc complexes with maltol, picolinic acid, picolinamide, 6-methyl-picolinic acid, L-threonine and L-valine.

The test system of data set [1] is Salmonella typhimurium TA 100, TA 1535, TA 98 and TA 1537. Kind of data set: Mutagenicity test (Ames) using microorganisms. The data set is classed as cell-based. Particulars: for mutation-inducing ability: Salmonella typhimurium TA 100, TA 1535, TA 98, TA 1537, compared with solvent control; for growth inhibition: high concentrations. The source says: (§2) As a mutagenicity test (Ames) using microorganisms, mutation-inducing ability of zinc complexes with maltol, picolinic acid, picolinamide, 6-methyl-picolinic acid, L-threonine and L-valine was examined using Salmonella typhimurium TA 100, TA 1535, TA 98 and TA 1537 and Escherichia coli WP 2 uvr A.

Data set [2] has as its system Escherichia coli WP 2 uvr A. Kind of data set: Mutagenicity test (Ames) using microorganisms. Format: cell-based. As to conditions: compared with solvent control.
Source text: as §2

The next data set in a line: Acute toxicity test. The data set is classed as in vivo. Particulars: rat, in vivo. On the procedure: as §1
Setting [3] is: ligand per se, strain not stated.

`Cc1cccc(C(=O)[O-])n1.Cc1cccc(C(=O)[O-])n1.[Zn+2]` [bis(6-methylpicolinic acid)/zinc complex]: the “change in normal state and autopsy compared with solvent control group” value (“change in normal state and autopsy” below) with female and male rats is “no special change”. For the same compound, the mutation-inducing ability result in data set [1] and in data set [2] was “no mutation-inducing ability” in each case.

Turning to `CC(C)[C@H](N)C(=O)[O-].CC(C)[C@H](N)C(=O)[O-].[Zn+2]` [zinc complex with L-valine], the “change in normal state and autopsy” value in the data set with female and male rats is listed as “no special change”. Further, the mutation-inducing ability entry in data set [1] and in data set [2] was “no mutation-inducing ability” throughout.

For orientation: LD50 means the dose at which mortality reaches 50%. Regarding `Cc1occc(=O)c1O` [maltol, reference compound], the LD50 at 15 days in “Acute toxicity test” (female) came to 1590 mg/kg; in the data set “Acute toxicity test” (male), 1680 mg/kg. Further, the growth inhibition entry in data set [1] (setting [3]) is listed as “growth inhibition at high concentrations”.

Turning to `O=C(O)c1ccccn1` [picolinic acid, reference compound], the growth inhibition result in data set [1] (setting [3]) is “growth inhibition at high concentrations”.

For the compound “bis(maltol)/zinc complex [zinc complex with maltol]”, the mutation-inducing ability result in data set [1] is listed as “very weakly positive”. Also, in data set [1] (TA 1535 strain), the growth inhibition result is given as “growth inhibition at high concentrations”.

As to `O=C([O-])c1ccccn1.O=C([O-])c1ccccn1.[Zn+2]` [zinc complex with picolinic acid], the “change in normal state and autopsy” value in the data set with female and male rats is “no special change”. In data set [1], the mutation-inducing ability entry was “very weakly positive”. In addition, the growth inhibition result in data set [1] (TA 98, TA 1537 strains) is reported as “growth inhibition at high concentrations”.
